Results as given in patent publication US8642609B2, “Modulators of ATP-binding cassette transporters” (Vertex Pharmaceuticals Incorporated, priority 2003, dated 2014).

Target: T1, ΔF508-CFTR (Homo sapiens, UniProt P13569, DEL508-508)
T1 construct: expressed in transfected cells
Assay: Membrane potential optical assay (FRET/VIPR), identification of correction compounds
Assay type: cell-based
Settings: for Emax: relative efficacy
Description: I) Membrane Potential Optical Methods for Assaying ΔF508-CFTR Modulation Properties of Compounds
The optical membrane potential assay utilized voltage-sensitive FRET sensors described by Gonzalez and Tsien (See, Gonzalez, J. E. and R. Y. Tsien (1995) “Voltage sensing by fluorescence resonance energy transfer in single cells” Biophys J 69(4): 1272-80, and Gonzalez, J. E. and R. Y. Tsien (1997) “Improved indicators of cell membrane potential that use fluorescence resonance energy transfer” Chem Biol 4(4): 269-77) in combination with instrumentation for measuring fluorescence changes such as the Voltage/Ion Probe Reader (VIPR) (See, Gonzalez, J. E., K. Oades, et al. (1999) “Cell-based assays and instrumentation for screening ion-channel targets” Drug Discov Today 4(9): 431-439).
These voltage sensitive assays are based on the change in fluorescence resonant energy transfer (FRET) between the membrane-soluble, voltage-sensitive dye, DiSBAC2(3), and a fluorescent phospholipid, CC2-DMPE, which is attached to the outer leaflet of the plasma membrane and acts as a FRET donor. Changes in membrane potential (Vm) cause the negatively charged DiSBAC2(3) to redistribute across the plasma membrane and the amount of energy transfer from CC2-DMPE changes accordingly. The changes in fluorescence emission were monitored using VIPR™ II, which is an integrated liquid handler and fluorescent detector designed to conduct cell-based screens in 96- or 384-well microtiter plates.
Identification of Correction Compounds
To identify small molecules that correct the trafficking defect associated with ΔF508-CFTR; a single-addition HTS assay format was developed. The cells were incubated in serum-free medium for 16 hrs at 37° C. in the presence or absence (negative control) of test compound. As a positive control, cells plated in 384-well plates were incubated for 16 hrs at 27° C. to “temperature-correct” ΔF508-CFTR. The cells were subsequently rinsed 3× with Krebs Ringers solution and loaded with the voltage-sensitive dyes. To activate ΔF508-CFTR, 10 μM forskolin and the CFTR potentiator, genistein (20 μM), were added along with Cl^−-free medium to each well. The addition of Cl^−-free medium promoted Cl^− efflux in response to ΔF508-CFTR activation and the resulting membrane depolarization was optically monitored using the FRET-based voltage-sensor dyes.
NIH3T3 mouse fibroblasts stably expressing ΔF508-CFTR are used for optical measurements of membrane potential. The cells are maintained at 37° C. in 5% CO2 and 90% humidity in Dulbecco's modified Eagle's medium supplemented with 2 mM glutamine, 10% fetal bovine serum, 1×NEAA, β-ME, 1× pen/strep, and 25 mM HEPES in 175 cm^2 culture flasks. For all optical assays, the cells were seeded at 30,000/well in 384-well matrigel-coated plates and cultured for 2 hrs at 37° C. before culturing at 27° C. for 24 hrs. for the potentiator assay. For the correction assays, the cells are cultured at 27° C. or 37° C. with and without compounds for 16-24 hours B) Electrophysiological Assays for assaying ΔF508-CFTR modulation properties of compounds

T1 sequence (P13569 with tags, fused parts or gaps DEL508-508): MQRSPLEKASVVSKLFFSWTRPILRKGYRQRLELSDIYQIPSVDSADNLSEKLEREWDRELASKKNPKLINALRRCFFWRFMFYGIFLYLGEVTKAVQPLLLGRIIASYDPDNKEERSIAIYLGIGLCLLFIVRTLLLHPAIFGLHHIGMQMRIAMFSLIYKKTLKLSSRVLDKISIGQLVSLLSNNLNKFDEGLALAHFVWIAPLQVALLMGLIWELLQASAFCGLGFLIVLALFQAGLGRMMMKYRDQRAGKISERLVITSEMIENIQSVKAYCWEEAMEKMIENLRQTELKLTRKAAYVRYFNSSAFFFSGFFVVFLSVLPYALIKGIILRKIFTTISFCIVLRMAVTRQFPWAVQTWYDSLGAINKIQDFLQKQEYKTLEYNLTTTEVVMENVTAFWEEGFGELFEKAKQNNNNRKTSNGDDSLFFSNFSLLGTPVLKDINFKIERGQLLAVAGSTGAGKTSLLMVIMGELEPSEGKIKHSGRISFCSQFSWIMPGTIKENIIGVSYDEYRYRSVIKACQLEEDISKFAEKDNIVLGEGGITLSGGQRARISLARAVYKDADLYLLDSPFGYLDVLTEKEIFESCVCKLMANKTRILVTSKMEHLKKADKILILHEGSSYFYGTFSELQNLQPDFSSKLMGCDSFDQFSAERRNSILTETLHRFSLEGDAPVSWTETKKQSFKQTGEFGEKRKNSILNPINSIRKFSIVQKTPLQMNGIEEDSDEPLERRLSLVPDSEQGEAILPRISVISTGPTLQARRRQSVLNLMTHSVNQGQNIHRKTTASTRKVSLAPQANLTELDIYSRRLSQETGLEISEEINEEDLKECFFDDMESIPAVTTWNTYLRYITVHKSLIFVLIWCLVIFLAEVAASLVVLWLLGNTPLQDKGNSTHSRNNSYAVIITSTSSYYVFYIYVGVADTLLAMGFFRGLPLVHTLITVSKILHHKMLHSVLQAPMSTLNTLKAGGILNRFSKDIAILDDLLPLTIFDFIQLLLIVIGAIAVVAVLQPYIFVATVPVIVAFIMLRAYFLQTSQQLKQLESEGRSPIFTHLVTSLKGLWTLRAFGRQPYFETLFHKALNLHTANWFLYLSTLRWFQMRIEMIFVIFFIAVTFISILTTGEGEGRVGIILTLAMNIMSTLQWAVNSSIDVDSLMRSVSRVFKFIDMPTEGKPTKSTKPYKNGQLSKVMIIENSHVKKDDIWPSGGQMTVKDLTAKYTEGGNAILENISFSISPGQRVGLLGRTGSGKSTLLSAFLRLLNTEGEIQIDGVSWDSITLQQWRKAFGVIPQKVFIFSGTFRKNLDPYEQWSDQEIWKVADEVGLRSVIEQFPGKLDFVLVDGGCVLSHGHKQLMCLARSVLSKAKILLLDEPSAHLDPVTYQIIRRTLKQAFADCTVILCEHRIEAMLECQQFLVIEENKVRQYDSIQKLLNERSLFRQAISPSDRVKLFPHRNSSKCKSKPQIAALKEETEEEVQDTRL

EC50 [µM] | Emax [%] | Structure (SMILES)
25 to 60 | 25 to 100 | Cc1cccc(NC(=O)N2CCN(C(C)c3nc4ccc(Cl)cc4c(=O)n3C)CC2C)c1 (stereo not shown) [compound 1]
25 to 60 | < 25 | CC(c1nc2ccc(Cl)cc2c(=O)n1C)N1CCN(C(=O)Nc2ccc(F)cc2F)C(C)C1 (stereo not shown) [compound 3]
10 to 25 | 25 to 100 | COc1ccc(S(=O)(=O)N2CCN(C(C)c3nc4ccccc4c(=O)n3C)CC2)cc1 (stereo not shown) [compound 6]
10 to 25 | 25 to 100 | CC(c1nc2ccccc2c(=O)n1C)N1CCN(S(=O)(=O)c2cccc(C(F)(F)F)c2)CC1 (stereo not shown) [compound 7]
25 to 60 | < 25 | COc1ccc(NC(=O)N2CCN(C(C)c3nc4ccccc4c(=O)n3C)CC2)c(OC)c1 (stereo not shown) [compound 8]
10 to 25 | 25 to 100 | CC(c1nc2ccccc2c(=O)n1C)N1CCN(S(=O)(=O)c2cccc3ccccc23)CC1 (stereo not shown) [compound 12]
25 to 60 | < 25 | CC(c1nc2ccccc2c(=O)n1C)N1CCN(S(=O)(=O)c2ccc(C(C)(C)C)cc2)CC1 (stereo not shown) [compound 13]
25 to 60 | < 25 | COc1cc(C(=O)N2CCN(C(C)c3nc4ccc(Cl)cc4c(=O)n3C)CC2)cc(OC)c1OC (stereo not shown) [compound 14]
10 to 25 | 25 to 100 | CC(c1nc2ccc(Cl)cc2c(=O)n1C)N1CCN(C(=O)Nc2ccc(Cl)cc2)CC1 (stereo not shown) [compound 18]
25 to 60 | < 25 | CCCn1c(C(C)N2CCN(S(=O)(=O)c3ccc(Cl)c([N+](=O)[O-])c3)CC2)nc2ccccc2c1=O (stereo not shown) [compound 20]
25 to 60 | 25 to 100 | CCCn1c(C(C)N2CCN(S(=O)(=O)c3c(C)cc(C)cc3C)CC2)nc2ccccc2c1=O (stereo not shown) [compound 21]
< 10 | > 100 | CCCn1c(C(C)N2CCN(S(=O)(=O)c3ccc(OC)cc3)CC2)nc2ccccc2c1=O (stereo not shown) [compound 22]
25 to 60 | 25 to 100 | CCCn1c(C(C)N2CCN(C(=O)Nc3cccc(C#N)c3)CC2)nc2ccccc2c1=O (stereo not shown) [compound 23]
< 10 | > 100 | CCCn1c(C(C)N2CCN(S(=O)(=O)c3ccc(Cl)cc3)CC2)nc2ccccc2c1=O (stereo not shown) [compound 26]
25 to 60 | 25 to 100 | CCCn1c(C(C)N2CCN(C(=O)c3ccc4ccccc4c3)CC2)nc2ccccc2c1=O (stereo not shown) [compound 30]
< 10 | < 25 | Cc1ccccc1C(=O)N1CCN(C(C)c2nc3ccccc3c(=O)n2C)CC1 (stereo not shown) [compound 32]
25 to 60 | < 25 | CCn1c(C(C)N2CCN(S(=O)(=O)c3ccc(Cl)c([N+](=O)[O-])c3)CC2)nc2ccc(Cl)cc2c1=O (stereo not shown) [compound 34]
< 10 | 25 to 100 | CCn1c(C(C)N2CCN(S(=O)(=O)c3cccc4ccccc34)CC2)nc2ccc(Cl)cc2c1=O (stereo not shown) [compound 35]
25 to 60 | 25 to 100 | CCn1c(C(C)N2CCN(S(=O)(=O)c3ccc(C)cc3)CC2)nc2ccc(Cl)cc2c1=O (stereo not shown) [compound 36]
10 to 25 | 25 to 100 | CC(c1nc2ccc(Cl)cc2c(=O)n1C)N1CCN(C(=O)c2ccc(Cl)cc2)CC1 (stereo not shown) [compound 40]
< 10 | 25 to 100 | CC(c1nc2ccc(Cl)cc2c(=O)n1C)N1CCN(S(=O)(=O)c2ccc(Br)cc2)CC1 (stereo not shown) [compound 42]
< 10 | 25 to 100 | CC(c1nc2ccc(Cl)cc2c(=O)n1C)N1CCN(c2ccc(Cl)cc2)CC1 (stereo not shown) [compound 44]
25 to 60 | 25 to 100 | Cc1ccc(NC(=O)N2CCN(C(C)c3nc4ccc(Cl)cc4c(=O)n3C)CC2)cc1 (stereo not shown) [compound 45]
25 to 60 | 25 to 100 | CCCn1c(C(C)N2CCN(C(=O)CSc3ccccc3)CC2)nc2ccccc2c1=O (stereo not shown) [compound 46]
< 10 | 25 to 100 | CCCn1c(C(C)N2CCN(S(=O)(=O)c3ccc4ccccc4c3)CC2)nc2ccccc2c1=O (stereo not shown) [compound 47]
25 to 60 | < 25 | COc1ccc(S(=O)(=O)N2CCN(C(C)c3nc4ccccc4c(=O)n3C)CC2)cc1OC (stereo not shown) [compound 49]
10 to 25 | 25 to 100 | CC(c1nc2ccccc2c(=O)n1C)N1CCN(S(=O)(=O)c2ccc(OC(F)(F)F)cc2)CC1 (stereo not shown) [compound 50]
10 to 25 | < 25 | CC(c1nc2ccccc2c(=O)n1C)N1CCN(C(=O)c2ccccc2)CC1 (stereo not shown) [compound 52]

The remaining lines, values behind:

Structure (SMILES) | EC50 [µM] | Emax [%]
CC(c1nc2ccc(Cl)cc2c(=O)n1C)N1CCN(C(=O)Nc2ccccc2Br)C(C)C1 (stereo not shown) [compound 2] | 25 to 60 | 25 to 100
COCCn1c(C(C)N2CCN(S(=O)(=O)c3ccc(OC)cc3)CC2)nc2ccccc2c1=O (stereo not shown) [compound 4] | 10 to 25 | 25 to 100
COCCn1c(C(C)N2CCN(S(=O)(=O)c3ccc(Br)cc3)CC2)nc2ccccc2c1=O (stereo not shown) [compound 5] | < 10 | > 100
CC(c1nc2ccccc2c(=O)n1C)N1CCN(S(=O)(=O)c2ccc(Cl)cc2)CC1 (stereo not shown) [compound 9] | 10 to 25 | > 100
CC(c1nc2ccccc2c(=O)n1C)N1CCN(S(=O)(=O)c2ccc(F)cc2)CC1 (stereo not shown) [compound 10] | 25 to 60 | 25 to 100
Cc1ccc(S(=O)(=O)N2CCN(C(C)c3nc4ccccc4c(=O)n3C)CC2)cc1 (stereo not shown) [compound 11] | 10 to 25 | 25 to 100
Cc1ccccc1C(=O)N1CCN(C(C)c2nc3ccc(Cl)cc3c(=O)n2C)CC1 (stereo not shown) [compound 15] | 10 to 25 | 25 to 100
CCCCC(=O)N1CCN(C(C)c2nc3ccc(Cl)cc3c(=O)n2C)CC1 (stereo not shown) [compound 16] | 25 to 60 | < 25
CC(c1nc2ccc(Cl)cc2c(=O)n1C)N1CCN(C(=O)c2ccc(Br)cc2)CC1 (stereo not shown) [compound 17] | 10 to 25 | 25 to 100
CCCn1c(C(C)N2CCN(S(=O)(=O)c3ccccc3)CC2)nc2ccccc2c1=O (stereo not shown) [compound 19] | 10 to 25 | 25 to 100
CCCn1c(C(C)N2CCN(C(=O)Nc3ccc(F)cc3F)CC2)nc2ccccc2c1=O (stereo not shown) [compound 24] | 25 to 60 | 25 to 100
CCCn1c(C(C)N2CCN(C(=O)Nc3ccc(OC)cc3OC)CC2)nc2ccccc2c1=O (stereo not shown) [compound 25] | 25 to 60 | < 25
CCCn1c(C(C)N2CCN(S(=O)(=O)c3ccc(Br)cc3)CC2)nc2ccccc2c1=O (stereo not shown) [compound 27] | < 10 | > 100
CCCn1c(C(C)N2CCN(S(=O)(=O)c3ccc(F)cc3)CC2)nc2ccccc2c1=O (stereo not shown) [compound 28] | 10 to 25 | 25 to 100
CCCn1c(C(C)N2CCN(S(=O)(=O)c3ccc(C)cc3)CC2)nc2ccccc2c1=O (stereo not shown) [compound 29] | 10 to 25 | > 100
CC(c1nc2ccccc2c(=O)n1C)N1CCN(C(=O)Nc2ccccc2)CC1 (stereo not shown) [compound 31] | 10 to 25 | < 25
CC(c1nc2ccccc2c(=O)n1C)N1CCN(C(=O)Nc2ccc(Cl)cc2)CC1 (stereo not shown) [compound 33] | 25 to 60 | 25 to 100
CCn1c(C(C)N2CCN(S(=O)(=O)c3ccccc3)CC2)nc2ccc(Cl)cc2c1=O (stereo not shown) [compound 37] | 10 to 25 | 25 to 100
CC(c1nc2ccc(Cl)cc2c(=O)n1C)N1CCN(C(=O)c2ccccc2)CC1 (stereo not shown) [compound 38] | 25 to 60 | < 25
CC(c1nc2ccc(Cl)cc2c(=O)n1C)N1CCN(C(=O)c2ccccc2Cl)CC1 (stereo not shown) [compound 39] | 25 to 60 | 25 to 100
Cc1ccc(S(=O)(=O)N2CCN(C(C)c3nc4ccc(Cl)cc4c(=O)n3C)CC2)cc1 (stereo not shown) [compound 41] | 25 to 60 | < 25
CC(c1nc2ccc(Cl)cc2c(=O)n1C)N1CCN(C(=O)Nc2ccccc2)CC1 (stereo not shown) [compound 43] | 25 to 60 | < 25
Cc1cccc(S(=O)(=O)N2CCN(C(C)c3nc4ccccc4c(=O)n3C)CC2)c1 (stereo not shown) [compound 48] | 25 to 60 | 25 to 100
CC(c1nc2ccccc2c(=O)n1C)N1CCN(S(=O)(=O)c2ccc(Br)cc2)CC1 (stereo not shown) [compound 51] | 10 to 25 | > 100
CC(c1nc2ccccc2c(=O)n1C)N1CCN(C(=O)c2ccc(Cl)cc2)CC1 (stereo not shown) [compound 53] | 25 to 60 | 25 to 100
